In US20140105871A1, “Use Of Mesenchymal Stem Cells For The Improvement Of Affective And Cognitive Function” (priority 2011, published 2014):

Columns and labels:
[1] = test system: murine model of schizophrenia (ketamine-injected female ICR pups); assay: Pre-pulse inhibition (PPI) in ketamine-injected pups, murine model of schizophrenia; type: in vivo, mouse; conditions: Example 6, intraperitoneal 12 days course
Procedure: Prepulse inhibition (PPI) test was conducted in startle device (Hamilton Kinder, Poway, Calif.) that consists of a plexiglas cylinder (10×10×5 cm) adapted for mouse size in order to restrict a mouse to stand up on its hind legs and enclosed in a ventilated sound attenuated compartment with a high-frequency loudspeaker producing all acoustic stimuli. The background noise was 65 dB. Movements within the cylinder were detected and transduced by a piezoelectric platform and recorded on a computer. Each trial was initiated with 5 minutes acclimation period followed by five startle pulse alone (ASR) successive testing trials and finishing with final five startle pulses alone. Auditory testing included startle pulse alone (ASR, 120 dB/40 msec) plus three different prepulse sessions in which either 20-msec-long 70, 74 and 82 dB stimuli were preceded the 120 dB pulse by 100 msec, with the alternate background noise measurement set as the baseline movements in the cylinder. All trials followed in a pseudo-random order and the average inter-trial interval (ITI) was […]. PPI was defined as the percentage of the decreased in the ratio between the startle magnitude in the presence of the prepulse and the magnitude in the absence of the prepulse (100−(100× magnitude on prepulse+pulse trial/magnitude on pulse trial)). […]

[2] = test system: cell suspension of rat neonatal brain tissue; assay: Neurosphere growth in conditioned medium of pre-treated MSC cultures (neurogenic potential in vitro); type: cell-based
Procedure: 70-80% confluent cultures of bone marrow derived MSCs were cultured in vitro in Dulbecco's modified Eagle's medium (DMEM) without Fetal Bovine Serum (FBS) with and supplemented with the addition of one of the following compounds: None, LiCl (2 mM), PACAP27 (20 nM) or DHEA (1 mM). After 3 days medium was changed with fresh ingredients and cultures were allowed to grow for an additional 24 hours. After 24 hours plates were washed twice with PBS and conditioning medium (C.M.) containing none of the above compounds was placed for additional 24 hours. Conditioned medium harvested from these cultures after 24 hours was filtered in 0.2 um filter supplemented with 1% B27 nutrients mix and used as culture medium for a cell suspension of rat neonatal brain tissue in 24 well plates (10^4 cells/well). […]
The number of developing neurospheres in each conditioned medium type was counted after 5 days of culture and provided an indication of the neurogenic potential of the MSCs culture from which the CM was harvested. […]
The number of developing neurospheres in each conditioned medium type was counted and provided an indication of the neurogenic potential of the MSCs culture from which the C.M. was harvested.

## CN1CCN(C2=Nc3cc(Cl)ccc3Nc3ccccc32)CC1 [Clozapine, clozapine]
[1]; 2.5 months after the treatment course ended, FIG. 17
  PPI vs Ket control: no significant effect
[1]; 6 weeks after the course ended, FIG. 16
  PPI vs Ket control: no significant effect

## [Cl-].[Li+] [LiCl, lithium chloride]
[2]; incubation of MSCs in culture with the agent
  neurogenic activity of the MSCs, in vitro: enhanced the neurogenic activity

## HSDGIFTDSYSRYRKQMAVKKYLAAVL [PACAP (P27), fragment of 27 amino acid residues corresponding to amino acids 132-158 of human PACAP]
[2]; C.M. of MSC cultures treated with the agent (PACAP27 20 nM, DHEA 1 mM) vs non-treated cultures (C.M. alone), FIG. 2
  number of developing neurospheres: clear advantage
